# Experimental data published in the supplement of paper PMC10307832.
# Tests used:
# Test in all cases: relative viability (nuclei count vs DMSO), 5 days (fraction); higher = more cells survive
# QS11 + Luminespib = compound: C1CC2=C(C1)C=C(C=C2)OC3=NC(=C4C(=N3)N(C=N4)CC5=CC=C(C=C5)C6=CC=CC=C6)N[C@@H](CC7=CC=CC=C7)CO [QS11] + CCNC(=O)c1noc(-c2cc(C(C)C)c(O)cc2O)c1-c1ccc(CN2CCOCC2)cc1 [Luminespib] (partner 0.01 µM)
# Outline: (§1)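 Relative viability was taken as the ratio of nuclei in treated wells to nuclei in vehicle wells. Lung cancer cell lines in 1536-well plates received compounds by pin tool one day after seeding, either one drug alone or a fixed anchor-drug dose plus five library-drug doses (not always all listed) in √10 steps. Nuclei were counted on 4× images after 5 days of treatment, and values are medians of duplicate plates.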
# [1] = compound: C[As](C)SC[C@H](NC(=O)CC[C@H](N)C(=O)O)C(=O)NCC(=O)O [Darinaparsin] + O=C(CCCCCCC(=O)Nc1ccccc1)NO [Vorinostat] (partner 1 µM)
# Outline: as §1
# AZ628 + OSI-027 = compound: CC1=C(C=C(C=C1)NC(=O)C2=CC(=CC=C2)C(C)(C)C#N)NC3=CC4=C(C=C3)N=CN(C4=O)C [AZ628] + COc1cccc2cc(-c3nc([C@H]4CC[C@H](C(=O)O)CC4)n4ncnc(N)c34)[nH]c12 [OSI-027] (partner 0.5 µM)
# Outline: as §1
# QS11 + Crizotinib = compound: C1CC2=C(C1)C=C(C=C2)OC3=NC(=C4C(=N3)N(C=N4)CC5=CC=C(C=C5)C6=CC=CC=C6)N[C@@H](CC7=CC=CC=C7)CO [QS11] + C[C@@H](Oc1cc(-c2cnn(C3CCNCC3)c2)cnc1N)c1c(Cl)ccc(F)c1Cl [Crizotinib] (partner 1 µM)
# Outline: as §1
Cell Line,relative viability (QS11 + Luminespib; first compound 0.08 µM),relative viability (QS11 + Luminespib; first compound 0.253 µM),relative viability (QS11 + Luminespib; first compound 0.8 µM),relative viability (QS11 + Luminespib; first compound 2.53 µM),relative viability (QS11 + Luminespib; first compound 8 µM),relative viability ([1]; first compound 0.08 µM),relative viability ([1]; first compound 0.8 µM),relative viability ([1]; first compound 2.53 µM),relative viability ([1]; first compound 8 µM),relative viability (AZ628 + OSI-027; first compound 0.08 µM),relative viability (AZ628 + OSI-027; first compound 0.253 µM),relative viability (AZ628 + OSI-027; first compound 0.8 µM),relative viability (AZ628 + OSI-027; first compound 2.53 µM),relative viability (AZ628 + OSI-027; first compound 8 µM),relative viability (QS11 + Crizotinib; first compound 0.08 µM),relative viability (QS11 + Crizotinib; first compound 0.253 µM),relative viability (QS11 + Crizotinib; first compound 0.8 µM),relative viability (QS11 + Crizotinib; first compound 2.53 µM),relative viability (QS11 + Crizotinib; first compound 8 µM)
NCI-H1975,0.199,0.33,0.275,0.281,0.2,0.875,0.728,0.741,0.854,0.726,0.619,0.483,0.503,0.373,1.08,1.03,0.853,1.16,0.817
BEN,0.241,0.567,0.366,0.507,0.31,0.572,0.602,0.688,0.65,0.318,0.278,0.32,0.281,0.267,0.801,1.06,0.978,0.736,1.09
NCI-H1437,1.15,1.2,1.11,1.05,0.947,0.907,0.854,0.911,1.06,0.896,0.836,0.723,0.934,0.904,0.99,1.04,0.862,0.747,0.744
NCI-H1734,0.2,0.199,0.186,0.179,0.168,0.934,0.752,0.773,0.746,0.604,0.565,0.512,0.46,0.293,0.65,0.656,0.658,0.555,0.619
NCI-H596,0.87,1.09,0.919,0.829,0.934,0.543,0.632,0.576,0.543,0.715,0.67,0.818,0.721,0.528,1.03,0.862,0.963,0.991,1.04
LOU-NH91,0.361,0.361,0.34,0.308,0.368,0.937,0.885,0.86,0.969,0.72,0.712,0.651,0.664,0.569,0.713,0.709,,0.694,0.744
NCI-H2342,0.787,0.754,0.721,0.697,0.746,0.876,0.721,0.734,0.828,0.717,0.589,0.569,0.64,0.669,,,,,
